Test results reported in ChEMBL document CHEMBL1201862, “PubChem BioAssay data set” (2004).
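Tested at 5 concentrations; 48 h exposure; 96-well plates; endpoints linearly interpolated, else capped at highest concentration. Here, GI50 denotes the concentration required for 50% inhibition of growth.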 The source made the active and inactive calls. No stated cut-off is given here; in the data, active = GI50 up to about 1.1 µM and inactive = higher.

Key:
Test in all cases: NCI-60 cell line screen, 48 h
MDA-MB-435 = system: MDA-MB-435
HOP-92 = system: HOP-92
SK-OV-3 = system: SK-OV-3
MCF7 = system: MCF7
UO-31 = system: UO-31
TK-10 = system: TK-10
SF-539 = system: SF-539
OVCAR-4 = system: OVCAR-4
SF-268 = system: SF-268
NCI-H460 = system: NCI-H460
RPMI-8226 = system: RPMI-8226
OVCAR-5 = system: OVCAR-5
SK-MEL-5 = system: SK-MEL-5
RXF 393 = system: RXF 393
K562 = system: K562
SF-295 = system: SF-295
NCI/ADR-RES = system: NCI/ADR-RES
UACC-257 = system: UACC-257
NCI-H226 = system: NCI-H226
SNB-75 = system: SNB-75

| Compound | GI50 (MDA-MB-435) | GI50 (HOP-92) | GI50 (SK-OV-3) | GI50 (MCF7) | GI50 (UO-31) | GI50 (TK-10) | GI50 (SF-539) | GI50 (OVCAR-4) | GI50 (SF-268) | GI50 (NCI-H460) | GI50 (RPMI-8226) | GI50 (OVCAR-5) | GI50 (SK-MEL-5) | GI50 (RXF 393) | GI50 (K562) | GI50 (SF-295) | GI50 (NCI/ADR-RES) | GI50 (UACC-257) | GI50 (NCI-H226) | GI50 (SNB-75) |
| --- | --- | --- | --- | --- | --- | --- | --- | --- | --- | --- | --- | --- | --- | --- | --- | --- | --- | --- | --- | --- |
| Cc1ccc2c(ccc3c[n+]4ccccc4c(C)c32)c1.[O-][Cl+3]([O-])([O-])[O-] | 4.73 µM (inactive) | 4.1 µM (inactive) | 10.3 µM (inactive) | 2.89 µM (inactive) | 20.7 µM (inactive) | 23.4 µM (inactive) | 2.3 µM (inactive) | 2.07 µM (inactive) | 1.29 µM (inactive) | > 100 µM (inactive) | 4.15 µM (inactive) | 10.5 µM (inactive) | 1.1 µM (active) | 26.4 µM (inactive) | 4.16 µM (inactive) | 1.39 µM (inactive) | > 100 µM (inactive) | 1.34 µM (inactive) | 1.28 µM (inactive) |  |
| CCOC(=O)C(C(=O)OCC)C(=S)NC1OC(COC(C)=O)C(OC(C)=O)C(OC(C)=O)C1OC(C)=O (centres undefined) | > 100 µM (inactive) | > 100 µM (inactive) | > 100 µM (inactive) | > 100 µM (inactive) | > 100 µM (inactive) |  | > 100 µM (inactive) | > 100 µM (inactive) | > 100 µM (inactive) | > 100 µM (inactive) | > 100 µM (inactive) | > 100 µM (inactive) | > 100 µM (inactive) | > 100 µM (inactive) |  | > 100 µM (inactive) | > 100 µM (inactive) | > 100 µM (inactive) | > 100 µM (inactive) |  |
| COc1ccc(NC(=S)Nc2c(C)n(C)n(-c3ccccc3)c2=O)cc1 | > 100 µM (inactive) | > 100 µM (inactive) | > 100 µM (inactive) | > 100 µM (inactive) | > 100 µM (inactive) | > 100 µM (inactive) | > 100 µM (inactive) |  | > 100 µM (inactive) | > 100 µM (inactive) | > 100 µM (inactive) | > 100 µM (inactive) | > 100 µM (inactive) | > 100 µM (inactive) | > 100 µM (inactive) | > 100 µM (inactive) | > 100 µM (inactive) | > 100 µM (inactive) | > 100 µM (inactive) | > 100 µM (inactive) |
| C[n+]1ccccc1/C1=c2\cc/c([nH]2)=C(\c2cccc[n+]2C)C2=N/C(=C(/c3cccc[n+]3C)C3C=CC(N3)/C(c3cccc[n+]3C)=C3/C=CC1=N3)C=C2 | 57 µM (inactive) | 90.6 µM (inactive) | > 100 µM (inactive) | > 100 µM (inactive) | > 100 µM (inactive) | > 100 µM (inactive) | > 100 µM (inactive) | > 100 µM (inactive) | > 100 µM (inactive) | 40.9 µM (inactive) | 56.1 µM (inactive) | > 100 µM (inactive) | 71.4 µM (inactive) | > 100 µM (inactive) | 26.7 µM (inactive) | > 100 µM (inactive) | > 100 µM (inactive) | > 100 µM (inactive) | > 100 µM (inactive) |  |
| Cc1cn(C2CC(n3cc(Cn4ccc(=O)[nH]c4=O)nn3)C(CO)O2)c(=O)[nH]c1=O (centres undefined) | > 100 µM (inactive) | > 100 µM (inactive) | 49 µM (inactive) | > 100 µM (inactive) | > 100 µM (inactive) | > 100 µM (inactive) | > 100 µM (inactive) | > 100 µM (inactive) | > 100 µM (inactive) |  | > 100 µM (inactive) | > 100 µM (inactive) | > 100 µM (inactive) | > 100 µM (inactive) |  | > 100 µM (inactive) | > 100 µM (inactive) | > 100 µM (inactive) | > 100 µM (inactive) | > 100 µM (inactive) |
| Cc1[nH]c(=O)nc(NCCNCCO)c1C(=O)Nc1c2ccccc2nc2ccccc12 | > 100 µM (inactive) | > 100 µM (inactive) | > 100 µM (inactive) | > 100 µM (inactive) | > 100 µM (inactive) | > 100 µM (inactive) | > 100 µM (inactive) | > 100 µM (inactive) |  |  | > 100 µM (inactive) | > 100 µM (inactive) | > 100 µM (inactive) | > 100 µM (inactive) | > 100 µM (inactive) | > 100 µM (inactive) | > 100 µM (inactive) | > 100 µM (inactive) | > 100 µM (inactive) | > 100 µM (inactive) |
| CCOC(=O)c1ccc(NC(=O)O/N=C(/Cl)CC)cc1 | 17.7 µM (inactive) | 2.75 µM (inactive) | 17.9 µM (inactive) | 15 µM (inactive) | 17.5 µM (inactive) |  | 17.6 µM (inactive) | 5.21 µM (inactive) | 19.2 µM (inactive) | 19.5 µM (inactive) | 1.99 µM (inactive) | 18.2 µM (inactive) | 16 µM (inactive) | 16.9 µM (inactive) | 1.94 µM (inactive) | 19.5 µM (inactive) | 14 µM (inactive) | 16.1 µM (inactive) | 20.9 µM (inactive) | 13.6 µM (inactive) |
| Cc1ccc(SCC(CSCCO)OCn2cnc3c2N=C(N)NC32OCCO2)cc1 (centres undefined) | > 100 µM (inactive) | > 100 µM (inactive) | > 100 µM (inactive) | > 100 µM (inactive) | > 100 µM (inactive) | > 100 µM (inactive) | > 100 µM (inactive) | > 100 µM (inactive) | > 100 µM (inactive) | > 100 µM (inactive) | > 100 µM (inactive) | > 100 µM (inactive) | > 100 µM (inactive) | > 100 µM (inactive) | > 100 µM (inactive) | > 100 µM (inactive) | > 100 µM (inactive) | > 100 µM (inactive) |  | > 100 µM (inactive) |
| C(=N\c1ccc(-c2nc3ccccc3o2)cc1)/c1ccco1 | 75.9 µM (inactive) | 30.8 µM (inactive) |  | 91.2 µM (inactive) | 41.4 µM (inactive) |  | > 100 µM (inactive) | 57.4 µM (inactive) |  |  | 0.0453 µM (active) | > 100 µM (inactive) | 30.8 µM (inactive) | 39.7 µM (inactive) |  |  | 61.7 µM (inactive) | 48.3 µM (inactive) |  | 49.1 µM (inactive) |
| NC(=O)CSc1nc2ccccc2c(=O)n1N | > 100 µM (inactive) | > 100 µM (inactive) |  | > 100 µM (inactive) | > 100 µM (inactive) | > 100 µM (inactive) | > 100 µM (inactive) | > 100 µM (inactive) | > 100 µM (inactive) | > 100 µM (inactive) | > 100 µM (inactive) | > 100 µM (inactive) | > 100 µM (inactive) | > 100 µM (inactive) | > 100 µM (inactive) | > 100 µM (inactive) | > 100 µM (inactive) | > 100 µM (inactive) | > 100 µM (inactive) | > 100 µM (inactive) |
| CC1CNC(c2ccc3c(c2)Cc2cc(C4=NC(C)CN4)ccc2-3)=N1 (centres undefined) | 25.8 µM (inactive) | > 100 µM (inactive) | 37.9 µM (inactive) | 17.7 µM (inactive) | > 100 µM (inactive) | > 100 µM (inactive) |  | 19.1 µM (inactive) | 26.1 µM (inactive) | 26.6 µM (inactive) | 36.6 µM (inactive) | > 100 µM (inactive) | 71.8 µM (inactive) | > 100 µM (inactive) | 34.4 µM (inactive) | 71.9 µM (inactive) | > 100 µM (inactive) | 32.6 µM (inactive) | 55.7 µM (inactive) | 54.2 µM (inactive) |
| O=C(CSc1nc2ccc(I)cc2c(=O)n1Cc1ccccc1)NN1C(=O)CSC1c1ccccc1 (centres undefined) | 27.2 µM (inactive) | 19.4 µM (inactive) | 24.1 µM (inactive) | 19.2 µM (inactive) |  | 27.4 µM (inactive) | 27.9 µM (inactive) | 25.8 µM (inactive) | 28.8 µM (inactive) | 18 µM (inactive) | 31.2 µM (inactive) | 53.8 µM (inactive) | 18.5 µM (inactive) | 25.8 µM (inactive) | 26.5 µM (inactive) | 27.1 µM (inactive) | 26.5 µM (inactive) | 20.4 µM (inactive) | 26.9 µM (inactive) | 34.2 µM (inactive) |
| COc1ccc(N2C(=O)/C(=C\c3cc(OC)c(OC)c(OC)c3)SC2c2ccccc2)cc1 (centres undefined) | 27.4 µM (inactive) | > 100 µM (inactive) | 81.7 µM (inactive) | 44.2 µM (inactive) | 46.7 µM (inactive) | > 100 µM (inactive) | > 100 µM (inactive) | 79.8 µM (inactive) | > 100 µM (inactive) | 67 µM (inactive) | 31.3 µM (inactive) | > 100 µM (inactive) | 23.7 µM (inactive) | 42.1 µM (inactive) | 38.3 µM (inactive) | 50.5 µM (inactive) | 34.8 µM (inactive) | 57.3 µM (inactive) | > 100 µM (inactive) |  |
| Nc1cc2c3c(cccc3c1)C(=O)N(c1ccc(OCCN3CCCCC3)cc1)C2=O | 24.7 µM (inactive) | 14.9 µM (inactive) | 15.1 µM (inactive) | 19.1 µM (inactive) | 9.73 µM (inactive) | 16.5 µM (inactive) | 14 µM (inactive) | 17.1 µM (inactive) | 19.1 µM (inactive) |  | 18.3 µM (inactive) | 20.8 µM (inactive) | 15.3 µM (inactive) | 16.7 µM (inactive) | 12.1 µM (inactive) | 16.9 µM (inactive) | 19.2 µM (inactive) | 16 µM (inactive) | 18.6 µM (inactive) | 14.6 µM (inactive) |
| CCOC(=O)c1sc2nc(SC)nc3c2c1NCN3c1ccc2c(c1)OCO2 | 14.8 µM (inactive) | 12.5 µM (inactive) | 10.7 µM (inactive) | 16.7 µM (inactive) | 15.5 µM (inactive) | 17.2 µM (inactive) | 21.6 µM (inactive) | 5.2 µM (inactive) | 3.42 µM (inactive) |  | 24.2 µM (inactive) | 97.5 µM (inactive) | 67.5 µM (inactive) | 3.14 µM (inactive) | 35 µM (inactive) | 10.9 µM (inactive) | 8.77 µM (inactive) | > 100 µM (inactive) | 25.8 µM (inactive) |  |
